Source: patent US4610816A (Schering Corporation, priority 1981, dated 1986)

Key:
[1] = molecular target: T1, enkephalinase A (Rattus norvegicus, UniProt P07861); assay: Enkephalinase A inhibition, radiometric 3H-Met5-ENK degradation assay with TLC separation; assay type: biochemical, Sprague-Dawley rats; settings: rat brain membrane enzyme, 40 nM 3H-Met5-ENK, 90 min at 37° C.; N.A. = No activity at <10^5 nM
T1 construct: from tissue; host or cells: Sprague-Dawley rat brain minus cerebellum; membrane pellet solubilised in 1% Triton X-100, DEAE Sephacel fraction eluting at 120-200 ml
T1 sequence (P07861 1-750): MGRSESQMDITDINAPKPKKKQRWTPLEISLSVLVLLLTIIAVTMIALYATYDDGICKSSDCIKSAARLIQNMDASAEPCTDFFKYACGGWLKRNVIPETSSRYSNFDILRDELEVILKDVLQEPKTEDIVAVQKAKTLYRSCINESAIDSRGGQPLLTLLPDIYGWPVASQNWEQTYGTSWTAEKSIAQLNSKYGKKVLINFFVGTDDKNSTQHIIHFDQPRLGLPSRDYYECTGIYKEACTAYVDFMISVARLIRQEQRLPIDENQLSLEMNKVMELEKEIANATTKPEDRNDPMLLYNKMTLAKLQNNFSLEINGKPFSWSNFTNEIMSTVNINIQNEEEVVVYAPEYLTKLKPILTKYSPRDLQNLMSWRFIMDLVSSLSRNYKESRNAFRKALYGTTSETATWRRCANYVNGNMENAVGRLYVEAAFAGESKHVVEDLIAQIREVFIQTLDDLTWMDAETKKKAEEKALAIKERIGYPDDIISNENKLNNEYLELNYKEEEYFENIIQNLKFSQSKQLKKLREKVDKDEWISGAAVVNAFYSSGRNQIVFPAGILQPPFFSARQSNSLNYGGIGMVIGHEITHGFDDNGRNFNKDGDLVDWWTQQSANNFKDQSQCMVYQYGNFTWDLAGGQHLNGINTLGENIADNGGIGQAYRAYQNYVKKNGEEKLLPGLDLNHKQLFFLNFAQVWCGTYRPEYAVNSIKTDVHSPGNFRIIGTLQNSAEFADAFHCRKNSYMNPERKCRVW

[2] = system: Male CFl mice; assay: Potentiation of the analgesic effects of (DAla2-Met5)-enkephalinamide (DAEAM), tail-flick test; assay type: in vivo; settings: mouse tail-flick, DAEAM icv, latency 30 min later, dose at which half the test animals displayed analgesia
Source text: Male CFl mice (19-23 g) from Charles River Breeding Labs, Mass., are used (N=10/dose or dose combination). Tail-flick testing is done similar to that of Dewey and Harris, Methods in Narcotic Research, Eds., S. Ehrenpreis and A. Neidle, pp. 101-109, Marcel Dekker, Inc., New York, 1975 using a radiant heat noxious stimulus. Following determination of control latencies (typically 2-3 sec), the mice are first injected (sc or po) with either vehicle or drug and after an appropriate interval injected intracerebroventricularly (icv) with either vehicle (10 μl of saline) or DAEAM according to Haley and McCormick, Br., J. Pharmacol., 12,12 (1957). Tail-flick latencies are re-determined 30 min later, as this has previously been determined to be the time of peak analgesia for DAEAM, a cut-off of 10 sec is employed.

IC50 [1]	Structure (SMILES)	DAEAM Potentiation ED50 (route) ([2]; po)	DAEAM Potentiation ED50 (route) ([2]; sc)
230 nM	O=C(CCNC(=O)[C@H](Cc1ccccc1)N[C@@H](Cc1ccccc1)C(=O)O)OCCOc1ccccc1 [P, N-[N-[(L-1-carboxy-2-phenylethyl)]-L-phenylalanyl]-β-alanine, 2-phenoxyethyl ester]	30-60 mg/k	
4.5 nM	CC(C)(C)OC(=O)N[C@@H](CNC(=O)[C@H](Cc1ccccc1)N[C@@H](Cc1ccccc1)C(=O)O)C(=O)O [AL, N-[N-(L-1-carboxy-2-phenylethyl)-L-phenylalanyl]-S-2-[N[(1,1-dimethylethoxy)carbonyl]amino]-β-alanine]		
12 nM	CC(C)C[C@H](N[C@H](Cc1ccccc1)C(=O)O)C(=O)N[C@@H](Cc1ccccc1)C(=O)O [AG, N-[N-[(D-1-carboxy-2-phenylethyl)]-L-leucyl]-L-phenylalanine]		
	CC(C)(C)C(=O)OCOC(=O)CCNC(=O)[C@H](Cc1ccccc1)N[C@@H](Cc1ccccc1)C(=O)OCOC(=O)C(C)(C)C [M]	37 mg/k	
2.5 nM	O=C(O)CCNC(=O)[C@H](Cc1ccccc1)N[C@@H](Cc1ccc(-c2ccccc2)cc1)C(=O)O [AC, N-[N-[L-1-carboxy-2-(4-phenyl)phenylethyl]-L-phenylalanyl]-β-alanine]		
15 nM	O=C(O)CCNC(=O)[C@H](Cc1ccccc1)N[C@@H](Cc1ccccc1)C(=O)O [K, N-[N-[(L-1-carboxy-2-phenylethyl)]-L-phenylalanyl]-β-alanine]		17 mg/k
	CC(C)(C)C(=O)OCOC(=O)CCNC(=O)[C@H](Cc1ccccc1)N[C@@H](Cc1ccccc1)C(=O)OCc1ccccc1 [L]	155 mg/k	
